Measured values: patent US11298339B2 (priority 2017, dated 2022)

Legend:
Type in all cases: in vivo, C57BL/6J mice
HBV [1] = test: Comparison of Compound 1 and Birinapant in chronic HBV infection mouse model (pAAV-HBV1.2 plasmid); conditions: for proportion of mice with serum HBsAg levels below the lower limit of detection: after 4 weeks of administration; for serum HBsAg level (individual): after one week of drug treatment
Protocol: Among them, there were 7 mice in each of Group A and Group B, and 6 mice in Group C. Compound 1 and Birinapant were administered once a week for five consecutive weeks. Blood was collected at orbital margin each week before the administration, and the HBsAg/HBeAg levels in supernatant were detected using Roche 601 instrument.

HBV [2] = test: Compound 1 alone in chronic HBV infection mouse model (high-pressure tail vein injection of pAAV-HBV1.2 plasmid)
Protocol: Male C57/B6 mice (6-8 weeks of age, body weight 20 f 2 g) were selected to establish a high-pressure tail vein injection mouse model, in which the tail of mice was wiped with 75% alcohol, and then irradiated with a far-infrared physiotherapy device for 2 to 3 minutes so that the tail vein of mice was turgid and clearly visible. […] Each mouse was injected with 10 μg of pAAV/HBV1.2 plasmid, and the amount of injection liquid (PBS) was 10% of body weight (2 mL/20 g). On the 14th day after the injection, blood was collected to detect HBsAg, and the successfully modeled mice with HBsAg>500 IU/ml were selected for further experiments (Huang, Wu et al. 2006; Chou, Chien et al. 2015). […] There were 6-8 mice in each group, which were administered once a week for 4 consecutive times and observed for 7 weeks.
After the mice serum were diluted 20-fold with PBS, the HBsAg and HBeAg titers of the serum were detected by using Abbott i2000SR microparticle chemiluminescence automatic detector. The serum HBV DNA was extracted by QIAamp DNA Mini Kit (Qiagen), the HBV DNA level in serum was quantified by Realtime-PCR (LightCycler 480, Roche) using DNA Amplification SYBR Green Kit (Roche), and the HBV plasmid PSM2 products with a series of concentration gradients were used as standards. The HBV primers used in this experiment were synthesized by Invitrogen (Shanghai) Trading Co., Ltd., and the primer sequences were as follows: HBV Hope-F (5′ to 3′ […]) and HBV Hope-R (5′ to 3′ […]). The liver tissues of mice were subjected to conventional formalin-fixation and paraffin-embedding, the resultant 4 μm sections were baked at 65° C. for 2 h, dehydrated with conventional ethanol gradients, infiltrated with hydrogen peroxide at room temperature for 30 min, washed with PBS for 5 min/time, 3 times in total, and blocked at room temperature for 1 h. After rabbit-anti-human HBcAg (B0586, DAKO) was added and incubated in a wet box at room temperature for 1 h, a GTvision III immunohistochemical detection kit of anti-rabbit anti-mice general type (GK50075, Shanghai Gene Technology Co., Ltd.) was used for incubation of secondary antibodies and development of color, and pictures at 200× magnification were taken with a normal optical upright microscope. 60 mg of liver tissue homogenate was weighed, added with 900 μl of lysate (50 mmol/L Tris-HCl PH 7.5+1 mmol/L EDTA), placed on ice, and after all samples were processed, 5 μl of […] was added and lysis was performed on ice, and then HBV DNA in liver tissue was extracted with phenol/chloroform, dissolved by adding 15 μl of RNase free water, run on a 1% agarose gel, transferred to membrane; then a full-length HBV probe labeled with digoxin was added, stood overnight at 46° C., subjected to DIG Washing Buffer once for 5 min, added with Anti-Digoxigenin-Ap Fab fragment (11093274910, Roche), and Image Quant LAS 4000mini was used for exposure and detection.

HBV [3] = test: Compound 1 in combination with TDF in pAAV-HBV1.2 high-pressure tail vein injection mouse model; conditions: Compound 1 10 mg/kg i.v. weekly x4; TDF 53 mg/kg gavage daily 10 days; observed 7 weeks
Protocol: After the mice serum were diluted 20-fold with PBS, the HBsAg and HBeAg titers of the serum were detected by using Abbott i2000SR microparticle chemiluminescence automatic detector. The serum HBV DNA was extracted by QIAamp DNA Mini Kit (Qiagen), the HBV DNA level in serum was quantified by Realtime-PCR (LightCycler 480, Roche) using DNA Amplification SYBR Green Kit (Roche), and the HBV plasmid PSM2 products with a series of concentration gradients were used as standards. The HBV primers used in this experiment were synthesized by Invitrogen (Shanghai) Trading Co., Ltd., and the primer sequences were as follows: HBV Hope-F (5′ to 3′ […]) and HBV Hope-R (5′ to 3′ […]). The liver tissues of mice were subjected to conventional formalin-fixation and paraffin-embedding, the resultant 4 μm sections were baked at 65° C. for 2 h, dehydrated with conventional ethanol gradients, infiltrated with hydrogen peroxide at room temperature for 30 min, washed with PBS for 5 min/time, 3 times in total, and blocked at room temperature for 1 h. […]

[4] = Liver damage after Compound 1 injection in HBV-infected mice (serum ALT/AST, HE staining of liver sections)
From the text: (§1) Chronic HBV infection mouse models were established by high-pressure tail vein injection of pAAV-HBV1.2 plasmid or recombinant virus rAAV8-1.3HBV injection of C57BL/6J mice (6 to 8 weeks of age, weight 20 f 2 g). […] Glutamic-oxalacetic transaminase (AST/GOT) kit (Nanjing Jiancheng, C010-2) and glutamic-pyruvic transaminase (ALT/GPT) kit (Nanjing Jiancheng, C009-2) were used to detect serum ALT and AST levels. Western blot was used to detect the expression of cIAPs molecules in liver tissues, and β-actin was used as a control. Intrahepatic inflammation and hepatocyte necrosis were detected by HE staining of liver tissue sections.

cIAP2 = biological target: T1, cIAP2 (Mus musculus, UniProt O08863); test: Western blot of cIAPs molecules in liver tissue after Compound 1 injection; conditions: 10 mg/kg i.v.
T1 construct: Western blot was used to detect the expression of cIAPs molecules in liver tissues; from tissue; host or cells: liver tissue of C57BL/6J mice (HBV model, pAAV-HBV1.2)
From the text: as §1

[5] = system: HBcAg-positive liver cells; test: Apoptosis of HBV-infected liver cells, HBcAg immunofluorescence and Tunnel double staining, rAAV8-HBV1.3 virus injection mouse model; conditions: 20 mg/kg i.v.; 12 h after injection
From the text: as §1

[6] = system: HBV-specific T cell response; test: HBV immune response in mice: liver lymphocyte counts and HBV-specific T cell response (flow cytometry, Core93-100 stimulation); conditions: 20 mg/kg once a week x4, 7th week
Protocol: There were 5 to 6 mice in each group, which were administered once a week for four consecutive times, and sacrificed on the 7th week, the mice liver lymphocytes were isolated, and cell counts and flow cytometry were used to detect the expression of CD4 and CD8 molecules in lymphocytes in the liver. The detection of HBV-specific T cell response was performed by using HBV core monopeptide (Core93-100) to stimulate lymphocytes, and the counts of CD4+ and CD8+ T cells that secreted IFNγ, TNFα and IL-2 were detected by flow cytometry cytokine intracellular staining method.

HBV [7] = test: Compound 1 in combination with IFNα2a in chronic HBV infection mouse model (pAAV-HBV1.2 plus pKCMvint IFNα-2a or control plasmid)
Protocol: One day after modeling, the mice were divided into 4 groups. […] There were 5 mice in each group (except Group D that included 7 mice), the administration was performed for consecutive 3 times, i.e., on the day 1 after modeling, and on the days 7 and 14 after modeling; blood was collected once at orbital margin one day before the administration, and serum HBsAg/HBeAg levels were detected using Roche 601 instrument.

HBV [8] = test: Compound 1 in combination with anti-PD1 antibody in chronic HBV infection mouse model (pAAV-HBV1.2 plasmid)
From the text: Among them, there were 7 mice in each group.

HBV [9] = test: Compound 1 and SF18 in mouse model established by rAAV8-HBV1.3 (ayw) virus tail vein injection; conditions: 20 mg/kg i.v.
Protocol: Among them, there were 3 mice in each group. Administration was carried out for consecutive four weeks, blood was collected at orbital margin once per week, and HBsAg/HBeAg levels in supernatant were detected by Roche 601 instrument.

[10] = 20 mg/kg i.v. once a week x4, on the 5th week, faster than 10 mg/kg group
[11] = Compound 1 injection groups (10 and 20 mg/kg i.v., once a week x4), up to the 7th week
[12] = 10 mg/kg i.v., 12, 24, 48 hours after injection
[13] = stimulation with HBV core monopeptide (Core93-100)
[14] = Compound 1 20 mg/kg i.v. once per week, anti-PD1 antibody 200 μg/mice/time i.p. twice per week, five weeks

T1 sequence (O08863 whole entry): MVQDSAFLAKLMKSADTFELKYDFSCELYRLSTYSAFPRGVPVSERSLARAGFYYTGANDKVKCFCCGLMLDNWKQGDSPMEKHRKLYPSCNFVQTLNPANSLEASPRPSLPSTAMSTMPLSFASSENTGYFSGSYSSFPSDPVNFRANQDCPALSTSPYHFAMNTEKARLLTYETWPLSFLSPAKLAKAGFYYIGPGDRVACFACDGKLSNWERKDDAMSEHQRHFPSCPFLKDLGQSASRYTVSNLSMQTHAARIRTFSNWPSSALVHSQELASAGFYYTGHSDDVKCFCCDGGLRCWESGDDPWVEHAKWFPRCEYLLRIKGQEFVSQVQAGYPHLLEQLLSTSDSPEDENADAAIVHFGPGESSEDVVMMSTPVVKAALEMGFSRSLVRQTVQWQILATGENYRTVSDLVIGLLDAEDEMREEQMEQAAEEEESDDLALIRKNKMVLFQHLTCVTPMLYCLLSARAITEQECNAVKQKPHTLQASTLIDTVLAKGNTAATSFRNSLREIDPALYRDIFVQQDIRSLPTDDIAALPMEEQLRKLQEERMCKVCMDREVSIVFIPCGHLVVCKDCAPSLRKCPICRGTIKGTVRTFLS

Q: Which “proportion of mice with serum HBsAg levels below the lower limit of detection” value (HBV [1]; 20 mg/kg i.v. once a week) does the source give for `CC[C@H](NC(=O)[C@H](C)NC)C(=O)N1C[C@@H](O)C[C@H]1Cc1c(-c2[nH]c3cc(F)ccc3c2C[C@@H]2C[C@H](O)CN2C(=O)[C@H](CC)NC(=O)[C@H](C)NC)[nH]c2cc(F)ccc12` [Birinapant, reference compound] here?
A: 57%

Q: And the “serum HBsAg level (individual)” value (HBV [1]; 20 mg/kg i.v.)?
A: decreased significantly

Q: Which results are given for `CN[C@@H](C)C(=O)N[C@H]1CN(S(=O)(=O)c2cccc(S(=O)(=O)N3CC[C@H]4CC[C@@H](C(=O)NC(c5ccccc5)c5ccccc5)N4C(=O)[C@@H](NC(=O)[C@H](C)NC)C3)c2)CC[C@H]2CCC(C(=O)NC(c3ccccc3)c3ccccc3)N2C1=O` (stereo partly drawn) [Compound 1]?
A: serum HBV DNA (HBV [2]; [10]): completely eliminated; serum HBsAg (HBV [2]; [10]): completely eliminated; HBV replication intermediate in liver tissue (Southern blot) (HBV [2]; 7 weeks after administration, compared with saline group): no HBV replication intermediate was detected; serum HBV DNA (HBV [2]; [11]): below the detection limit; serum HBsAg (HBV [2]; [11]): below the detection limit; HBcAg expression in liver (immunohistochemical staining) (HBV [2]; after 7 weeks of administration): not observed; serum HBsAg clearance rate in comparison with control group (HBV [3]): statistically significant differences; time at which serum ALT returned to normal levels ([4]; 10 mg/kg i.v.): around 48 hours; time at which serum ALT rose to the highest value ([4]; 10 mg/kg i.v.): 12 h; time at which serum AST returned to normal levels ([4]; 10 mg/kg i.v.): around 48 hours; time at which serum AST rose to the highest value ([4]; 10 mg/kg i.v.): 12 h; serum ALT change after injection [4, 12]: transient increase; serum AST change after injection [4, 12]: transient increase; liver tissue HE staining ([4]; 10 mg/kg i.v., 12 hours after injection, vicinity of portal areas, with lymphocyte infiltration): scattered necrotic lesions; intrahepatic inflammation / fulminant hepatitis ([4]; after Compound 1 injection, only transient intrahepatic inflammation): did not cause fulminant hepatitis; time at which inhibition of cIAP2 reached the strongest value (cIAP2): 12 h; inhibitory effect on cIAP2 in liver tissues (Western blot) (cIAP2; 12, 24, 48 h): strong inhibitory effect; apoptosis of HBcAg-positive liver cells [5]: could be induced; count of infiltrated CD4+ T cells in the liver vs control [6]: significantly increased; count of infiltrated CD8+ T cells in the liver vs control [6]: significantly increased; total lymphocyte number in the liver vs normal saline control [6]: significantly higher; counts of CD4+ T cells that secreted IFNγ, TNFα and IL-2 [6, 13]: increased significantly; counts of CD8+ T cells that secreted IFNγ, TNFα and IL-2 [6, 13]: increased significantly; serum HBsAg compared with Group C (IFNα-2a) (HBV [7]; 21st day, P 0.008): decreased significantly; serum HBeAg compared with Group A (saline) (HBV [7]; days 7, 14, 21 (P 0.004 on 7th day, 0.021 on 7th day as printed, 0.001 on 21st day)): statistically significant differences; serum HBsAg compared with Group A (saline) (HBV [7]; days 7, 14, 21 (P 0.010, 0.008, 0.004), Compound 1 10 mg/kg i.v. days 1, 7, 14, IFNα-2a plasmid-expressed): statistically significant differences; clearance effect of HBsAg (overall level) vs saline injection group (HBV [1]; 20 mg/kg i.v. once a week, five weeks): statistically significant difference; proportion of mice with serum HBsAg levels below the lower limit of detection (HBV [1]; 20 mg/kg i.v. once a week): 86%; serum HBsAg level (individual) (HBV [1]; 20 mg/kg i.v.): decreased significantly; serum HBsAg level compared with Brinapant group (HBV [1]; 20 mg/kg i.v., after one week, p=0.035): significantly lower than that of the Brinapant group; clearance effect of HBsAg and HBeAg, overall comparison (HBV [1]; same dosage and mode of administration (20 mg/kg i.v.)): superior to Birinapant; serum HBeAg (individual) compared with Group A (saline) (HBV [8]; 1st and 2nd weeks (P 0.029, 0.009)): statistically significant differences; serum HBeAg compared with Group C (anti-PD1 antibody) (HBV [8]; 1st and 2nd weeks, P week 1 0.016 (Group B), 0.007 (Group D), week 2 0.007, 0.002): decreased more significantly; serum HBeAg level (overall) (HBV [8]; [14]): significantly reduce; serum HBsAg level (overall) (HBV [8]; [14]): significantly reduce; anti-HBV effect (conclusion) (HBV [9]; four weeks): anti-HBV effect

Q: Which deaths during administration (HBV [9]; 3 mice in the group) does the source give for `CN[C@@H](C)C(=O)N[C@H]1CN(C(=O)Nc2ccc(NC(=O)N3CC[C@H]4CC[C@@H](C(=O)NC(c5ccccc5)c5ccccc5)N4C(=O)[C@@H](NC(=O)[C@H](C)NC)C3)cc2)CC[C@H]2CC[C@@H](C(=O)NC(c3ccccc3)c3ccccc3)N2C1=O` [SF18] here?
A: one mice died on the 2nd week and 4th week

Q: And the “anti-HBV effect (conclusion)” value (HBV [9]; four weeks)?
A: stronger than that of Compound 1

Q: What about the “decrease rate of HBeAg in mice serum” value (HBV [9]; four weeks) of the same compound?
A: significantly faster than those of the Compound 1 group

Q: And the “decrease rate of HBsAg in mice serum” value (HBV [9]; four weeks)?
A: significantly faster than those of the Compound 1 group
